From patent publication US20260027163A1, “GUT MICROBIOME BACTERIA AND ENZYMES THAT METABOLIZE DIETARY AND MEDICINAL PLANT SMALL MOLECULES TO AFFECT GUT MICROBIOME” (The Children's Medical Center Corporation, priority 2022, published 2026)

Experiments:
DSS-induced colitis = assay: DSS-induced colitis, bioactivation of salicin by Bacteroides uniformis; assay type: in vivo; conditions: salicin bioactivated to saligenin by Bacteroides uniformis; FIGS. 7A-7B
Text: (§1) The present disclosure identifies and characterizes a novel mechanism by which the gut microbiome transforms abundant and chemically diverse small molecule components of human diet to drive pro-homeostatic programs in the intestine.

AhR [1] = biological target: T1, AhR (Homo sapiens, UniProt P35869); assay: Activation of xenobiotic sensor AhR; assay type: cell-based; conditions: FIG. 4
T1 sequence (P35869 11-848): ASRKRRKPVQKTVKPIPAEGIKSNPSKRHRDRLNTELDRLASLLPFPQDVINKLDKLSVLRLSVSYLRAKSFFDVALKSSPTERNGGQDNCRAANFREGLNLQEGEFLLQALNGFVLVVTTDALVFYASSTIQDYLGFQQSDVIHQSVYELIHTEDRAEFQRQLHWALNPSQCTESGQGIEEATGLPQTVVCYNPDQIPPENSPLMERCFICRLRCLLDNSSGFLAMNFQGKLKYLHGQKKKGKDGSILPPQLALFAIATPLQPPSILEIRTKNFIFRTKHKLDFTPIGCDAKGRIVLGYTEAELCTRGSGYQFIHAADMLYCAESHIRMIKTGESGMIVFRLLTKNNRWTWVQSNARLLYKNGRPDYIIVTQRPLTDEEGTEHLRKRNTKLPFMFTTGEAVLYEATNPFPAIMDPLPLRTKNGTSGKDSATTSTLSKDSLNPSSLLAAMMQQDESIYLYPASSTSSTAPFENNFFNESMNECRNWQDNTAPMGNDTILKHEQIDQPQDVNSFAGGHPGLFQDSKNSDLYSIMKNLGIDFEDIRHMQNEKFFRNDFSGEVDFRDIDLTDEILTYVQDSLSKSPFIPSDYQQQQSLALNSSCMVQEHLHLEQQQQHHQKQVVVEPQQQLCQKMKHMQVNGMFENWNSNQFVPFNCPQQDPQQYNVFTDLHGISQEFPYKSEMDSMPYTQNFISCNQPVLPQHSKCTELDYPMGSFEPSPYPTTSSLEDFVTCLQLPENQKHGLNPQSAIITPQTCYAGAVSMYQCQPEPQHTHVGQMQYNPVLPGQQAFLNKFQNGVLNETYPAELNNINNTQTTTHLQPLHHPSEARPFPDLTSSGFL
Text: Saligenin […] AhR, a xenobiotic immune sensor that drives pro-homeostatic processes in gut epithelia and immune cells.

[2] = system: DSS-induced intestinal inflammation; assay: DSS-induced colitis, pure compound delivered orally; assay type: in vivo, mice
Text: as §1

AhR [3] = biological target: T2, AhR (Mus musculus, UniProt P30561); assay: In vivo AhR activation in colitis, reversal with competitive AhR antagonist; conditions: FIG. 9
T2 construct: endogenous in cells
T2 sequence (P30561 10-848): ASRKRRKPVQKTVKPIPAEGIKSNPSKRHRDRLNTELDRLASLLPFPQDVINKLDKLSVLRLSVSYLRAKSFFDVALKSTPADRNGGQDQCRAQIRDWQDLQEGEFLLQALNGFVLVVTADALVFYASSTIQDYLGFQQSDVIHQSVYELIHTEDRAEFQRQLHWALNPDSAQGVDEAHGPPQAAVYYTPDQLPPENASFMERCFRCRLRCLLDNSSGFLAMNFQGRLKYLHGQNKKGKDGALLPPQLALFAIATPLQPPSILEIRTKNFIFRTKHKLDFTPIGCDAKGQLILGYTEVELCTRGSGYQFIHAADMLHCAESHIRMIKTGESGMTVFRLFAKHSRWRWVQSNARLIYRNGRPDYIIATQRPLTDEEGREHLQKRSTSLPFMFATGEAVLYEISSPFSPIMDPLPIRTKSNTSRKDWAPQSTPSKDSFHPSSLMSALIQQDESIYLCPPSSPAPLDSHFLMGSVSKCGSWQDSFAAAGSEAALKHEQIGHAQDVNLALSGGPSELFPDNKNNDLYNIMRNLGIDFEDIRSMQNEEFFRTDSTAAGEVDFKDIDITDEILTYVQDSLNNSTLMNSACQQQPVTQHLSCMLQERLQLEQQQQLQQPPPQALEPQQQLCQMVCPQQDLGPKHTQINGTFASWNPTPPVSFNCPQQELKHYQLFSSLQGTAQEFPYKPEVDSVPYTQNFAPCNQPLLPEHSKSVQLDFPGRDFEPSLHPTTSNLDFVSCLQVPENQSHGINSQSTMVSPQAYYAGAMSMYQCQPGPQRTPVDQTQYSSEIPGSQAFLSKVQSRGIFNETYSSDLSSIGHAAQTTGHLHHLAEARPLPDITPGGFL
Text: as §1

[4] = system: macrophages stimulated with pro-inflammatory LP5; assay: Inflammatory cytokine production by stimulated macrophages after saligenin pre-treatment; assay type: cell-based; conditions: in vitro, FIGS. 1A-1B

Row | SMILES | protection against DSS-induced colitis (DSS-induced colitis) | AhR activation (AhR [1]) | Th1-effector cells ([2]; DSS exposure, FIGS. 6A-6B) | colonic IFN-gamma ([2]; DSS exposure, FIGS. 11A-11B) | protection against DSS-induced intestinal inflammation ([2]; pure compound delivered orally daily for 7 days, mice, FIGS. 8A-8B) | AhR activation in vivo, reversibility by antagonist (AhR [3]) | inflammatory cytokine production [4]
1 | OCc1ccccc1O[C@@H]1O[C@H](CO)[C@@H](O)[C@H](O)[C@H]1O [salicin] | protected against DSS-induced colitis | – | – | – | – | – | –
2 | OCc1ccccc1O [saligenin] | – | activated | decrease in Th1-effector cells | decrease in colonic IFN-gamma | protected against DSS-induced intestinal inflammation | can be reversed with a competitive AhR antagonist | attenuated inflammatory cytokine production
